Marks after values point to notes of the source that are not given here. Primed or numbered codes have the meaning given here. Ends that are not written are not given here. bexarotene = RXR ligand attached at the C-terminus; adapalene = RARβ/γ ligand, attached at C-terminus; GW7647″ = PPARα ligand, attached at C-terminus; GW4064 = FXR ligand, attached at C-terminus
Test system: C2C12 myoblast cell line
Assay: C2C12 myoblast differentiation assay (creatine kinase)
Format: cell-based
Conditions: 96 hours, relative to imm3SVD peptide (=100)
Experimental: C2C12 myoblast cell line (ATCC, Manassas, VA) was cultured in DMEM medium supplemented with 10% FBS and 1% penicillin/streptomycin. For differentiation, cells were cultured in the same medium, except that 10% FBS was replaced by 2% horse serum. Peptides and NR ligands were added at the indicated concentrations and cells were harvested 96 hours later for assay. Cell extracts were assayed for creatine kinase (CK) per mg protein. CK was measured using the ECPK-100 kit from BioAssay Systems (Hayward, CA). Protein was assayed using the BCA protein assay kit from Thermofisher Scientific (Waltham, MA). CK activities and p values were expressed relative to imm3SVD peptide (=100). **p<0.01; *p<00.05.

[1] = Peptide 0.66 uM, no added free ligand

Compound	CK (units/mg) (Added ligand 2 uM together with imm3SVD peptide 0.66 uM)	CK (units/mg) [1]
CN1c2ccccc2N=C(c2ccc(C(=O)O)cc2)c2cc3c(cc21)C(C)(C)CCC3(C)C [HX600]	30.3 ± 16.0* % of imm3SVD peptide	
imm3adp: KKGFYKKKQCRPSKGRKRGFCWSVDK C-terminally liganded with adapalene (RARß/γ ligand) (KKGFYKKKQCRPSKGRKRGFCWSVDK-adapalene; cysteine pairing not given here)		185.8 ± 23.5** % of imm3SVD peptide
imm3bex: SDKKGFYKKKQCRPSKGRKRGFCWSVDK C-terminally liganded with bexarotene (RXR ligand) (SDKKGFYKKKQCRPSKGRKRGFCWSVDK-bexarotene; cysteine pairing not given here)		121.0 ± 6.6* % of imm3SVD peptide
imm3fxr: SDKKGFYKKKQCRPSKGRKRGFCWSVDK C-terminally liganded with GW4064 (FXR ligand) (SDKKGFYKKKQCRPSKGRKRGFCWSVDK-GW4064; cysteine pairing not given here)		136.8 ± 19.6* % of imm3SVD peptide
imm3ppa: SDKKGFYKKKQCRPSKGRKRGFCWSVDK C-terminally liganded with GW7647 (PPARα ligand) (SDKKGFYKKKQCRPSKGRKRGFCWSVDK-{GW7647″}; cysteine pairing not given here)		155.9 ± 18.8** % of imm3SVD peptide
